From PubChem BioAssay (NCI) come the findings set out here.

Among the test systems are RXF-631 renal; SN12K1 renal; P388/ADR leukemia; DLD-1 colon.
Common to all, as to assay: NCI tumour cell line growth inhibition, 48 h

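Cultured in 96-well plates, cells were exposed to test compound for 48 hours across five concentrations. TGI: concentration producing complete growth inhibition.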 Where only a bound is given, the exact number is not on record here.

As for `O=C(c1ccccc1)[C@H]1Nc2ccc(Cl)cc2[C@H]2OCCC[C@@H]12`, the TGI in the assay with RXF-631 renal is 34.5 µM.
For the compound `NC(=O)NO`, the TGI was 1890 µM in the assay with SN12K1 renal, 502 µM in the assay with P388/ADR leukemia and greater than 2500 µM in the assay with DLD-1 colon.
Take `c1ccc(C(c2ccccc2)[P+](c2ccccc2)(c2ccccc2)c2ccccc2)cc1`: the TGI was 12.3 µM with SN12K1 renal, 31.8 µM in the assay with P388/ADR leukemia and 14.2 µM in the assay with DLD-1 colon.
